Among the data in ChEMBL document CHEMBL1150954, “Isolation and synthesis of an alpha-malamic acid derivative from Justicia ghiesbreghtiana” (J Nat Prod, 1998) are Activity values, retold here.

Calls of active or inactive are those of the source. The calls are words filed in the database; no cut-off is given here.

This test relates to Mycobacterium tuberculosis. The test can be described thus: Antibacterial activity against Mycobacterium tuberculosis. Format: functional, organism-based.

Consider `COc1ccc(NC(=O)[C@@H](O)CC(=O)O)cc1OC`, for which the outcome was inactive.
